Measured values as given in ChEMBL document CHEMBL4765232 (J Med Chem, 2016).

What was measured:
[1] = biological target: T1, Histone-lysine N-methyltransferase EZH2 (Homo sapiens, UniProt Q15910); experiment: Inhibition of wild-type EZH2 in PRC2 complex (unknown origin) using RKQLATKAARK(Me3)SAPATGGVKKP-NH2 peptide substrate preincubated for 30 mins followed by addition of [3H]-SAM measured after 2 hrs by Topcount scintillation proximity assay
[2] = biological target: T1, Histone-lysine N-methyltransferase EZH2; experiment: Inhibition of EZH2 in human HeLa cells assessed as inhibition of trimethylation of H3K27 after 72 hrs by AlphaLISA assay; assay type: cell-based
[3] = Half life in Balb/c mouse plasma at 1 mg/kg, iv formulated with 5:25:70 DMA/PEG400/20% SBECD; assay type: ADME, organism-based
[4] = Cmax in Balb/c mouse at 100 mg/kg, po formulated in 0.5 % methyl cellulose maintained at pH 3; assay type: ADME, organism-based; design: route oral, dose 100 mg/kg; conditions: in vivo, pH 3, 100 mg/kg
[5] = Intrinsic clearance in mouse liver microsomes assessed per mg protein; assay type: ADME, Microsome
[6] = Protein binding in rat plasma assessed as bound fraction; assay type: ADME, cell-free; conditions: read-out: PPB (converted)
[7] = Unbound Cmax in Balb/c mouse at 100 mg/kg, po formulated in 0.5 % methyl cellulose maintained at pH 3; assay type: ADME, organism-based; conditions: in vivo, pH 3, 100 mg/kg
[8] = Protein binding in human plasma assessed as bound fraction; assay type: ADME, cell-free; conditions: read-out: PPB (converted)
[9] = Oral bioavailability in Balb/c mouse at 100 mg/kg formulated in 0.5 % methyl cellulose maintained at pH 3; assay type: ADME, organism-based; conditions: in vivo, pH 3, 100 mg/kg
[10] = Volume of distribution at steady in Balb/c mouse at 1 mg/kg, iv formulated with 5:25:70 DMA/PEG400/20% SBECD; assay type: ADME, organism-based; conditions: in vivo, read-out: Vdss
[11] = Clearance in Balb/c mouse at 1 mg/kg, iv formulated with 5:25:70 DMA/PEG400/20% SBECD; assay type: ADME, organism-based; conditions: in vivo
CYP2C9 = CYP2C9 (Homo sapiens, UniProt P11712); experiment: Inhibition of CYP2C9 (unknown origin) at 10 uM relative to control; assay type: ADME
Chain of CYP2C9 (P11712 whole entry): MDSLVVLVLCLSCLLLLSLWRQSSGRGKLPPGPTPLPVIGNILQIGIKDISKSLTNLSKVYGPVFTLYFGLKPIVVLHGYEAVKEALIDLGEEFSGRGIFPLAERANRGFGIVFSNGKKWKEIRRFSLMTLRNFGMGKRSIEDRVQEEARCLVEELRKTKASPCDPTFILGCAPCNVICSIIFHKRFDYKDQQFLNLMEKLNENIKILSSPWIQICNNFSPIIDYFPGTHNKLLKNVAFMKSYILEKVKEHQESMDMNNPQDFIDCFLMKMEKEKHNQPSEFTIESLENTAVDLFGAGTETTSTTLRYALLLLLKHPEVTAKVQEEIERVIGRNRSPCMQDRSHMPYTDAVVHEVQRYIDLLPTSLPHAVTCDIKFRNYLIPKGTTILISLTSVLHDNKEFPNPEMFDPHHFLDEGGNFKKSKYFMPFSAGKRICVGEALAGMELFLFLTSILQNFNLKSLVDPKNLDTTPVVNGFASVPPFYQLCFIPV

[12] = Intrinsic clearance in dog liver microsomes assessed per mg protein; assay type: ADME, Canis lupus familiaris, Microsome
[13] = AUC (0 to infinity) in Balb/c mouse at 100 mg/kg, po formulated in 0.5 % methyl cellulose maintained at pH 3; assay type: ADME, organism-based; design: time infinity, route oral, dose 100 mg/kg; conditions: in vivo, pH 3, 100 mg/kg
[14] = Tmax in Balb/c mouse at 100 mg/kg, po formulated in 0.5 % methyl cellulose maintained at pH 3; assay type: ADME, organism-based; conditions: in vivo, pH 3, 100 mg/kg
CYP2D6 = CYP2D6 (Homo sapiens, UniProt P10635); experiment: Inhibition of CYP2D6 (unknown origin) at 10 uM relative to control; assay type: ADME
Chain of CYP2D6 (P10635 whole entry): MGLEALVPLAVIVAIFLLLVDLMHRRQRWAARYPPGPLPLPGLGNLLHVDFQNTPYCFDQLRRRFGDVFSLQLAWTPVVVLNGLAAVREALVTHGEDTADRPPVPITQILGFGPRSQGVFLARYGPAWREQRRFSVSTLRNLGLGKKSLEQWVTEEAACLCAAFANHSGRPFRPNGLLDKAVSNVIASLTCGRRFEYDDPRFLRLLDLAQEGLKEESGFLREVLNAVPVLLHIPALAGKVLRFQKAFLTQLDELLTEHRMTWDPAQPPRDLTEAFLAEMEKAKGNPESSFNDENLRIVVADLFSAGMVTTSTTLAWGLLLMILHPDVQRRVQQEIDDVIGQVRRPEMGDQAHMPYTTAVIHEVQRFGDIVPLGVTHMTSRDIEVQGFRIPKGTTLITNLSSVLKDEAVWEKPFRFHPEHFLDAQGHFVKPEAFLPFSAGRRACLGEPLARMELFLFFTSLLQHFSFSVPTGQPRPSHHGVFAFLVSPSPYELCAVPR

[15] = Clearance in Balb/c mouse at 1 mg/kg, iv formulated with 5:25:70 DMA/PEG400/20% SBECD relative to liver blood flow; assay type: ADME, organism-based; conditions: in vivo
[16] = Fraction unbound in mouse plasma; assay type: ADME, cell-free
[17] = Intrinsic clearance in rat liver microsomes assessed per mg protein; assay type: ADME, Microsome
[18] = Protein binding in mouse plasma assessed as bound fraction; assay type: ADME, cell-free; conditions: for fraction unbound: read-out: PPB (converted)
[19] = Unbound clearance in Balb/c mouse at 1 mg/kg, iv formulated with 5:25:70 DMA/PEG400/20% SBECD; assay type: ADME, organism-based; conditions: in vivo
CYP2C8 = biological target: T2, CYP2C8 (Homo sapiens, UniProt P10632); experiment: Inhibition of CYP2C8 (unknown origin) at 10 uM relative to control; assay type: ADME
T2 sequence (P10632 whole entry): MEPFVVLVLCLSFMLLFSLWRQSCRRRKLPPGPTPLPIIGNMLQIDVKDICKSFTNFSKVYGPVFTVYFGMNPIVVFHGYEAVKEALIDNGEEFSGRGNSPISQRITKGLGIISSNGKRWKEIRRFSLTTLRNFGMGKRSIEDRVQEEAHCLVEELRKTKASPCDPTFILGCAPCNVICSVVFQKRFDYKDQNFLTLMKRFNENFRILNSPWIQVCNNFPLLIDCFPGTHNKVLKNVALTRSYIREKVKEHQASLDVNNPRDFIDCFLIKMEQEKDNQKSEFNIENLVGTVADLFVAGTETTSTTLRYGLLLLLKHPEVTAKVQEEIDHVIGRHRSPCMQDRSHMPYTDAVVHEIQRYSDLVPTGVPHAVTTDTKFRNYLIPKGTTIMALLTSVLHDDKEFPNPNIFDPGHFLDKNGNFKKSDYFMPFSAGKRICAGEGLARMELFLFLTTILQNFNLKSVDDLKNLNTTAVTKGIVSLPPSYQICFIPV

[20] = Unbound AUC in Balb/c mouse at 100 mg/kg, po formulated in 0.5 % methyl cellulose maintained at pH 3; assay type: ADME, organism-based; conditions: in vivo, pH 3, 100 mg/kg
[21] = Protein binding in dog plasma assessed as bound fraction; assay type: ADME, cell-free, Canis lupus familiaris; conditions: read-out: PPB (converted)
CYP1A2 = biological target: T3, CYP1A2 (Homo sapiens, UniProt P05177); experiment: Inhibition of CYP1A2 (unknown origin) at 10 uM relative to control; assay type: ADME
T3 sequence (P05177 whole entry): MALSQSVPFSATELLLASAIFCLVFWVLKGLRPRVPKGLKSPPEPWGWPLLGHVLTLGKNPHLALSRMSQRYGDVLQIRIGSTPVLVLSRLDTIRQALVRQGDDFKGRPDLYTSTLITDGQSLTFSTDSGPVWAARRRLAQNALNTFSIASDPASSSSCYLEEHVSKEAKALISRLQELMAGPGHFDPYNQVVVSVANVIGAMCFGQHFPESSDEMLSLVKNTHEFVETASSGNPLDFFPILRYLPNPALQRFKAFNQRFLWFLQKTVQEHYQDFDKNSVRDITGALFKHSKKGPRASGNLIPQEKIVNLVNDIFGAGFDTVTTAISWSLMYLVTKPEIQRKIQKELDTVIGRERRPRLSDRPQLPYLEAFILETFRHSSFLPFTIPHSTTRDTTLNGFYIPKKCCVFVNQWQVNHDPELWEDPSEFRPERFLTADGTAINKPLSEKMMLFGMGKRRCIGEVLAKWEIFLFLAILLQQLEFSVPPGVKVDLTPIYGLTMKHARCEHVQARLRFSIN

CYP3A4 = CYP3A4 (Homo sapiens, UniProt P08684); experiment: Inhibition of CYP3A4 (unknown origin) at 10 uM relative to control; assay type: ADME
Chain of CYP3A4 (P08684 whole entry): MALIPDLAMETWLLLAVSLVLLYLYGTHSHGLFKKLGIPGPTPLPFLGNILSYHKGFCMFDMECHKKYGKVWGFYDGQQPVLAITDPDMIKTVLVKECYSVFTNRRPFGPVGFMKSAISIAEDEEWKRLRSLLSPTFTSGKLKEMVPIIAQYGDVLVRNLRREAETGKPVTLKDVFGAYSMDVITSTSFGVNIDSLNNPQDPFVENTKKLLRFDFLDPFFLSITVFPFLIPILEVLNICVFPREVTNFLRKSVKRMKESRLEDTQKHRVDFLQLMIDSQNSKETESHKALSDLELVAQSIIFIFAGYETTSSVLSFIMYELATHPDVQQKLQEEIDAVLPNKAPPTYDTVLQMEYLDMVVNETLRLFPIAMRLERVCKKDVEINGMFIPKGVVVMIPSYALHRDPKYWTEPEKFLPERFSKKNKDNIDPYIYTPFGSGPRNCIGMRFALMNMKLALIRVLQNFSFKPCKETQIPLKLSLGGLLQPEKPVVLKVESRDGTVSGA

[22] = Intrinsic clearance in human liver microsomes assessed per mg protein; assay type: ADME, Microsome

T1 sequence (Q15910 whole entry): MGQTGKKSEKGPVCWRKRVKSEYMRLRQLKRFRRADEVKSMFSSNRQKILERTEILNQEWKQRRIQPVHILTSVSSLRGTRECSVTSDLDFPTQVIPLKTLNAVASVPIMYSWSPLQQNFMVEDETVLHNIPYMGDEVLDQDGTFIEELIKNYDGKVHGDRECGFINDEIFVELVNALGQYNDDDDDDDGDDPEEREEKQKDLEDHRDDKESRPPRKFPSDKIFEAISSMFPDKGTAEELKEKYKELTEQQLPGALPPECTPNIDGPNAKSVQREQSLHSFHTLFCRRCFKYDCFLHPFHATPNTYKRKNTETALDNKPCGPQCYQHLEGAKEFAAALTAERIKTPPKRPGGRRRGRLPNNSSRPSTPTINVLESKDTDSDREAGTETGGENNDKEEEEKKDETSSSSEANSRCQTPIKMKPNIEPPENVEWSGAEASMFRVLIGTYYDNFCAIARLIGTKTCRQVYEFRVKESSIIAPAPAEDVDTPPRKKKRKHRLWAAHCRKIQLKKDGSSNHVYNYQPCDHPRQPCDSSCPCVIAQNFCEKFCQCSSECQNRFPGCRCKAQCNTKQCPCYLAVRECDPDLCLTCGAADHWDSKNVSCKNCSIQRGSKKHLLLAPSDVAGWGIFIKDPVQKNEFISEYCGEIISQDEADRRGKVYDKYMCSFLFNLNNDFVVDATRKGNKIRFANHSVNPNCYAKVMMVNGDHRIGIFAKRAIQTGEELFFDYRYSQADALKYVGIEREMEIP

With `COc1cc(C)[nH]c(=O)c1CNC(=O)c1c(C)n([C@H](C)C2CCN(C(=O)N(C)C)CC2)c2ccccc12` the IC50 [1] was 3.3 nM and the EC50 [2] was 930 nM.
With `COc1cc(C)[nH]c(=O)c1CNC(=O)c1c(C)n([C@H](C)C2CCNCC2)c2ccccc12` the IC50 [1] was 2 nM and the EC50 [2] was 1100 nM.
In the case of `COc1cc(C)[nH]c(=O)c1CNC(=O)c1c(C)n([C@H](C)C2CCN(C(=O)OC(C)C)CC2)c2ccccc12`, the IC50 [1] is reported as < 1 nM and the EC50 [2] is reported as 110 nM.
Compound `COc1cc(C)[nH]c(=O)c1CNC(=O)c1c(C)n([C@H](C)C2CCN(CC(F)F)CC2)c2ccccc12` has an IC50 [1] of 1.8 nM, a half-life [3] of 24.1 min and a Cmax [4] of 52.1 µM. The CLH [5] was 131 µL/min, the fraction unbound [6] was 0.169 and the fCmax [7] was 1.15 µM. The fraction unbound [8] was 0.167, the F [9] was 91.6% and the Vd [10] was 1.1 L/kg. For the same compound, the clearance [11] was 74.2 mL/min/kg, the inhibition at 10 µM (CYP2C9) was 25.4% and the CLH [12] was 52.4 µL/min. The AUC [13] was 42.01 µM·h, the Tmax [14] was 15 min and the inhibition at 10 µM (CYP2D6) was 26.1%. The CL [15] was 82%, the Fu [16] was 0.022% and the CLH [17] was 71.3 µL/min. It also gave a PPB [18] of 97.8%, an EC50 [2] of 39 nM and a CL free [19] of 3372 mL/min/kg. For the same compound, the inhibition at 10 µM (CYP2C8) was 18.9%, the fAUC [20] was 0.924 µM·h and the fraction unbound [21] was 0.357. The inhibition at 10 µM (CYP1A2) was 28.6% and the inhibition at 10 µM (CYP3A4) was 25.2%.
Compound `COc1cc(C)[nH]c(=O)c1CNC(=O)c1c(C)n([C@H](C)C2CCN(C(=O)C(C)C)CC2)c2ccccc12` has an IC50 [1] of 2.5 nM and an EC50 [2] of 420 nM.
For `COc1cc(C)[nH]c(=O)c1CNC(=O)c1c(C)n([C@H](C)C2CCN(C3COC3)CC2)c2ccccc12`, the IC50 [1] was < 1 nM and the EC50 [2] was 150 nM.
With `CCOC(=O)CN1CCC([C@@H](C)n2c(C)c(C(=O)NCc3c(OC)cc(C)[nH]c3=O)c3ccccc32)CC1` the IC50 [1] was < 1 nM and the EC50 [2] was 260 nM.
In the case of `COc1cc(C)[nH]c(=O)c1CNC(=O)c1c(C)n([C@H](C)C2CCN(CC(F)(F)C(F)F)CC2)c2ccccc12`, the IC50 [1] is reported as 1.6 nM and the EC50 [2] is reported as 38 nM.
With `COc1cc(C)[nH]c(=O)c1CNC(=O)c1c(C)n([C@H](C)C2CCN(CC(C)(F)F)CC2)c2ccccc12` the IC50 [1] was < 1 nM, the CLH [5] was 193 µL/min and the fraction unbound [6] was 0.076. For the same compound, the fraction unbound [8] was 0.053, the inhibition at 10 µM (CYP2C9) was 5% and the CLH [12] was 68.9 µL/min. It also gave a CLH [22] of 83.8 µL/min, an inhibition at 10 µM (CYP2D6) of 7.7% and a CLH [17] of 86.1 µL/min. It also gave a fraction unbound [18] of 0.006, an EC50 [2] of 20 nM and an inhibition at 10 µM (CYP2C8) of 50.9%. The fraction unbound [21] was 0.064, the inhibition at 10 µM (CYP1A2) was 0% and the inhibition at 10 µM (CYP3A4) was 0%.
For `COc1cc(C)[nH]c(=O)c1CNC(=O)c1c(C)n([C@H](C)C2CCN(CCC(F)(F)F)CC2)c2ccccc12`, the IC50 [1] was 2.3 nM, the CLH [5] was 61.3 µL/min and the fraction unbound [6] was 0.026. It also gave a fraction unbound [8] of 0.041, an inhibition at 10 µM (CYP2C9) of 11.6% and a CLH [12] of 35.3 µL/min. The CLH [22] was 35.4 µL/min, the inhibition at 10 µM (CYP2D6) was 17.2% and the CLH [17] was 25.7 µL/min. For the same compound, the fraction unbound [18] was 0.003, the EC50 [2] was 290 nM and the inhibition at 10 µM (CYP2C8) was 23.1%. The fraction unbound [21] was 0.037, the inhibition at 10 µM (CYP1A2) was 19.4% and the inhibition at 10 µM (CYP3A4) was 5%.
For `COc1cc(C)[nH]c(=O)c1CNC(=O)c1c(C)n([C@H](C)C2CCN(C)CC2)c2ccccc12`, the IC50 [1] was < 1 nM and the EC50 [2] was 470 nM.
